Data: US20250018019A1, “TREATMENT OF INTERFERON DRIVEN INFLAMMATION” (The Provost, Fellows, Foundation Scholars and the other …, priority 2023, published 2025)
Counter-ions that a name gives are not always drawn.

Test system: BMDMs
Assay: Proteomic analysis of BMDMs
Format: cell-based, mouse
Details: BMDMs pre-treated vs DMSO, LPS 4 h
Experimental: BMDMs (from 5 independent mice) were plated onto 10-cm dishes and treated as indicated. At the experimental endpoint, cells were washed with PBS on ice and centrifuged at 1500 rpm for 5 mins at 4° C. and frozen at -80° C. Cell pellets were lysed, reduced and alkylated in 50 μl of 6M Gu-HCl, 200 mM Tris-HCl PH 8.5, 10 mM TCEP, 15 mM Chloroacetamide by probe sonication and heating to 95° C. for 5 min. Protein concentration was measured by a Bradford assay and initially digested with LysC (Wako) with an enzyme to substrate ratio of 1/200 for 4 h at 37° C. Subsequently, the samples were diluted tenfold with water and digested with porcine trypsin (Promega) at 37° C. overnight. Samples were acidified to 1% TFA, cleared by centrifugation (16,000 g at RT) and approximately 20 μg of the sample was desalted using a Stage-tip. Eluted peptides were lyophilized, resuspended in 0.1% TFA/water and the peptide concentration was measured by A280 on a nanodrop instrument (Thermo). The sample was diluted to 2 μg/5 μl for subsequent analysis. The tryptic peptides were analysed on a Fusion Lumos mass spectrometer connected to an Ultimate Ultra3000 chromatography system (both Thermo Scientific) incorporating an autosampler. 2 μg of de-salted peptides were loaded onto a 50 cm emitter packed with 1.9 μm ReproSil-Pur 200 C18-AQ (Dr Maisch, Germany) using a RSLC-nano uHPLC systems connected to a Fusion Lumos mass spectrometer (both Thermo, UK). Peptides were separated by a 140 min linear gradient from 5% to 30% acetonitrile, 0.5% acetic acid. […] Raw files were analysed and quantified by searching against the Uniprot Mus Musculus database using DIA-NN 1.8 (https://github.com/[…]). […] Data were expressed as mean±standard error of the mean (SEM) unless stated otherwise. […] The proteomics cut-offs for analysis were a log2FC of 0.5 and a false discovery rate (FDR)<0.05, determined using t statistics. […] Overrepresentation analysis (ORA) of significant changes were assessed using Enrichr^4 and the Bioconductor package clusterProfiler 4.0 in R (version 3.6.1). […]

Structure (SMILES)	GDF15 protein (proteomics)	SLC25A39 protein (proteomics)
COC(=O)/C=C/C(=O)OC [DMF, dimethyl fumarate]	one of the most significantly increased proteins	
CCOC(=O)[C@@]12CCCC=C1N(Cc1ccc(-c3ccccc3)cc1)C(=O)[C@H]2CC(=O)NC [FHIN1, Fumarate hydratase-IN-1]	one of the most significantly increased proteins	increased
